Data: ChEMBL document CHEMBL3832022, “DailyMed|setid=50ee3815-7675-4bc0-a88a-ab3886aea795 | ESTRING - estradiol ring|Physicians Total Care, Inc”

Key:
Homo sapiens = species on record: Homo sapiens; experiment: (§1) Mean steady-state pharmacokinetic parameters for Estradiol evaluated after a single dose of 2 mg of Estradiol as estridiol vaginal ring; type: ADME, organism-based; set-up: dose 2 mg, route vaginal; conditions: in vivo, other, dosed compound id 17, dosed compound name ESTRADIOL, gender female, regimen Single dose, sampling time1 12 weeks, tissue Serum
[1] = as §1; type: ADME, organism-based; set-up: dose 2 mg, route vaginal; conditions: human, in vivo, dosed compound id 17, dosed compound name ESTRADIOL, gender female, regimen Single dose, sampling time1 12 weeks, tissue Serum

Structure (SMILES): C[C@]12CC[C@@H]3c4ccc(O)cc4CC[C@H]3[C@@H]1CC[C@@H]2O [ESTRADIOL]
- Cmax (Homo sapiens): 0.0556 ng/mL
- Cmax ([1]; 2 mg): 0.0632 ng/mL
- Tmax ([1]; dose 2 mg, route vaginal): 30 to 60 min
- concentration at 12 weeks ([1]; dose 2 mg, route vaginal, read-out: Css-12w): 0.008 ng/mL
